The source of these data is patent US11629143B2, “HipK4 inhibitors and uses thereof” (Vibliome Therapeutics, LLC, priority 2020, dated 2023).

What is called inhibition is how much of the control response was suppressed.

Molecules are shown by their SMILES.

What all share (assay): Kinase panel (mobility shift)
Type in all cases: biochemical

In one assay the target is T1, AXL (Homo sapiens, UniProt P30530).
T1 sequence (P30530 26-894): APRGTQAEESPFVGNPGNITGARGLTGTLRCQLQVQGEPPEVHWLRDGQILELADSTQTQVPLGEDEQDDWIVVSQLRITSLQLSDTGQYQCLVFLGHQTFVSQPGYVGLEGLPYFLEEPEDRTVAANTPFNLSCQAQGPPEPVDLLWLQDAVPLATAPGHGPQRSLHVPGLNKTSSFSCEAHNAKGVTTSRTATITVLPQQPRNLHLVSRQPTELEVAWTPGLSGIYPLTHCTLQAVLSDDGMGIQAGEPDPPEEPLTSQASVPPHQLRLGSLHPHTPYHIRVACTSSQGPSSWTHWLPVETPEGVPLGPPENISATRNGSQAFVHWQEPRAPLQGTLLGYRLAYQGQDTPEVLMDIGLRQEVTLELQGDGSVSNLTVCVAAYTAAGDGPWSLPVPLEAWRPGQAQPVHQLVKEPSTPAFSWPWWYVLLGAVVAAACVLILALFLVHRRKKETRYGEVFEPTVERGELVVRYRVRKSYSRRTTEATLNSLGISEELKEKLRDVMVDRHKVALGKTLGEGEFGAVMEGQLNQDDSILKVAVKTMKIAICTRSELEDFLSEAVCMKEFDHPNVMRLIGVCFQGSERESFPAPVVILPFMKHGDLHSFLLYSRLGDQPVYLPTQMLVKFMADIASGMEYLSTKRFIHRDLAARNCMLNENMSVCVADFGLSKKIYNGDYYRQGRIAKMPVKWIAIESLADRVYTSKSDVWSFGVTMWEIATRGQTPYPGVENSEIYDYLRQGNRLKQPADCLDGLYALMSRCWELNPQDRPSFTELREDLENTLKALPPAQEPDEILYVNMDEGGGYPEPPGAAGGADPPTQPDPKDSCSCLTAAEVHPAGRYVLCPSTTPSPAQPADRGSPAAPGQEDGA
The method in brief:
(§1)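 Each kinase was incubated with a fluorescently labeled substrate and compound in a standard reaction mix. After the reaction was stopped, product and substrate were separated on microfluidic chips by electrophoretic mobility shift. Activity came from comparing product and substrate peak fluorescence, graded A (95% or greater), B (90%-94%) or C (80%-89%) at 5 um.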

For another assay, the target named is T2, TYRO3 (Homo sapiens, UniProt Q06418).
T2 sequence (Q06418 41-890): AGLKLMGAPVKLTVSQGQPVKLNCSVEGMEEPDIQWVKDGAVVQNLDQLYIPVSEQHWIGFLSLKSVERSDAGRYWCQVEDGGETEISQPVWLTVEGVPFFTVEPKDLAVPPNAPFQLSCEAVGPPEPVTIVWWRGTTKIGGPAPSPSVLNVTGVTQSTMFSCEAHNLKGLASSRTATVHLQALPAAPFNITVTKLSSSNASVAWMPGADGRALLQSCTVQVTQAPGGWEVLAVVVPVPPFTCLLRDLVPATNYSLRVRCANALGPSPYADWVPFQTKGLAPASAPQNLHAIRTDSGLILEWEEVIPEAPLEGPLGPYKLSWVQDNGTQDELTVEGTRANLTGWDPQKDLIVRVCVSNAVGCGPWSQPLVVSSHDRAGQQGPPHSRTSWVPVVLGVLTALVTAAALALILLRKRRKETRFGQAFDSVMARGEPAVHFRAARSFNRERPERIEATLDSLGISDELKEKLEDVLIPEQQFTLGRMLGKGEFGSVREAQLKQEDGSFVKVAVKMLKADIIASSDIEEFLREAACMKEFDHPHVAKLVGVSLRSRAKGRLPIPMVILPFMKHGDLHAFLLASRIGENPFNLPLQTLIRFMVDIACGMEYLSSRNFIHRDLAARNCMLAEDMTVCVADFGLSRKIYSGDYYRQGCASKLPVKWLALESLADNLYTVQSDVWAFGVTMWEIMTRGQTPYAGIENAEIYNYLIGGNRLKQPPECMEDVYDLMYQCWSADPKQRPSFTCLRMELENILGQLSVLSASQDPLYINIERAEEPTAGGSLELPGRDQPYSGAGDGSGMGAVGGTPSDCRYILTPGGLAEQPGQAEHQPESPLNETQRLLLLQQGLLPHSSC
In outline:
as §1

For a further assay, the target named is KIT (Homo sapiens, UniProt P10721). In outline: as §1
KIT, sequence (P10721 26-976, species assumed): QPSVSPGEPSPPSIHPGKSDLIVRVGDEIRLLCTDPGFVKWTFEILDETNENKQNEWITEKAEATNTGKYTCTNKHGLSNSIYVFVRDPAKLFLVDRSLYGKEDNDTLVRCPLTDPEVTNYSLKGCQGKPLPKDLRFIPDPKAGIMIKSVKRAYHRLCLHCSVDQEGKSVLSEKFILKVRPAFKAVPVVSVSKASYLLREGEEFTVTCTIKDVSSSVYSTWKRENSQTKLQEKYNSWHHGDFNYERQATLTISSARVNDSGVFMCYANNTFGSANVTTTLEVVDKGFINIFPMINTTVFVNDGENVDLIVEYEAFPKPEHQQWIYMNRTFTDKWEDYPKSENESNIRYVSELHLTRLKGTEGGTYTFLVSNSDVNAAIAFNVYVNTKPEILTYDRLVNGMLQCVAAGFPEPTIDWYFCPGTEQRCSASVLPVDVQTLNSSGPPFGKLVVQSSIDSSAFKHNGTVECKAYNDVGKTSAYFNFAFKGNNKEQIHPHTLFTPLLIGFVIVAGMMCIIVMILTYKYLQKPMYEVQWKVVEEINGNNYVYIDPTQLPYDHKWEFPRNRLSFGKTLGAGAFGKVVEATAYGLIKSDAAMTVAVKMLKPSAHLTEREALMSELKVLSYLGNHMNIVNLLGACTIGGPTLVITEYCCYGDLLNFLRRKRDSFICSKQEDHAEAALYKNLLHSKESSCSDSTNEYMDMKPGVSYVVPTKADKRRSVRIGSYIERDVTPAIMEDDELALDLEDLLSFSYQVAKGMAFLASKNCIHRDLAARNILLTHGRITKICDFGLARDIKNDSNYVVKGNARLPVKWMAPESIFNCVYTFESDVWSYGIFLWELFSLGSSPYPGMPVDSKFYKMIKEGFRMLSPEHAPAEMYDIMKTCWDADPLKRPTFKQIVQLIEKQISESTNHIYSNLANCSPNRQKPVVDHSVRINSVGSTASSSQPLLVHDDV
The next assay concerns the target EPH-A4 (Homo sapiens, UniProt P54764). In outline: as §1
A further assay addresses T3, MUSK (Homo sapiens, UniProt O15146).
T3 sequence (O15146 24-869): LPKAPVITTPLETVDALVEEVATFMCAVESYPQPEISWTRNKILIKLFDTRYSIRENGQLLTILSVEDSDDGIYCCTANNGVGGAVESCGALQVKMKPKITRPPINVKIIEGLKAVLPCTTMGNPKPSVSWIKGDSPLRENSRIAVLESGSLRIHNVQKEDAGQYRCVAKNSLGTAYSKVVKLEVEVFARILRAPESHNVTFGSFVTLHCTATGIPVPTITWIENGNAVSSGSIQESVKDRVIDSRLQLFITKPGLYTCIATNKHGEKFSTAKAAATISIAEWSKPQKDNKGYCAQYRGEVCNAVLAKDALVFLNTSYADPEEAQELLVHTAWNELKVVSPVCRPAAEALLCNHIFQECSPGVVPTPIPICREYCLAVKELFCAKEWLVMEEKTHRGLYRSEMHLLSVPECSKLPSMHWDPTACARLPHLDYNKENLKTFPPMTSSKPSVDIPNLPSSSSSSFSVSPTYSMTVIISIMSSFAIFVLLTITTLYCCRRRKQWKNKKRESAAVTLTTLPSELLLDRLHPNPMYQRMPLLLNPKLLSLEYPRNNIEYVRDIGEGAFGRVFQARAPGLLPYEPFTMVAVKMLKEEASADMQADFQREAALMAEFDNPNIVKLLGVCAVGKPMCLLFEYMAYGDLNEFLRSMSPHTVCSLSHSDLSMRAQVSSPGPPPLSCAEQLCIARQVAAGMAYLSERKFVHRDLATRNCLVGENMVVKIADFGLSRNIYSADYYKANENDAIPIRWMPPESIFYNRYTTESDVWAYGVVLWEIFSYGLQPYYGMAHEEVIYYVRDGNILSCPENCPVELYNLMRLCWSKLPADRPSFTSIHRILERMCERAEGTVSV
The method in brief: as §1

For a further assay, the target named is P38-a (Homo sapiens, UniProt Q16539). The conditions noted are these: at 5 um. The method in brief:
as §1

EPH-A4, sequence (P54764 20-986, species assumed): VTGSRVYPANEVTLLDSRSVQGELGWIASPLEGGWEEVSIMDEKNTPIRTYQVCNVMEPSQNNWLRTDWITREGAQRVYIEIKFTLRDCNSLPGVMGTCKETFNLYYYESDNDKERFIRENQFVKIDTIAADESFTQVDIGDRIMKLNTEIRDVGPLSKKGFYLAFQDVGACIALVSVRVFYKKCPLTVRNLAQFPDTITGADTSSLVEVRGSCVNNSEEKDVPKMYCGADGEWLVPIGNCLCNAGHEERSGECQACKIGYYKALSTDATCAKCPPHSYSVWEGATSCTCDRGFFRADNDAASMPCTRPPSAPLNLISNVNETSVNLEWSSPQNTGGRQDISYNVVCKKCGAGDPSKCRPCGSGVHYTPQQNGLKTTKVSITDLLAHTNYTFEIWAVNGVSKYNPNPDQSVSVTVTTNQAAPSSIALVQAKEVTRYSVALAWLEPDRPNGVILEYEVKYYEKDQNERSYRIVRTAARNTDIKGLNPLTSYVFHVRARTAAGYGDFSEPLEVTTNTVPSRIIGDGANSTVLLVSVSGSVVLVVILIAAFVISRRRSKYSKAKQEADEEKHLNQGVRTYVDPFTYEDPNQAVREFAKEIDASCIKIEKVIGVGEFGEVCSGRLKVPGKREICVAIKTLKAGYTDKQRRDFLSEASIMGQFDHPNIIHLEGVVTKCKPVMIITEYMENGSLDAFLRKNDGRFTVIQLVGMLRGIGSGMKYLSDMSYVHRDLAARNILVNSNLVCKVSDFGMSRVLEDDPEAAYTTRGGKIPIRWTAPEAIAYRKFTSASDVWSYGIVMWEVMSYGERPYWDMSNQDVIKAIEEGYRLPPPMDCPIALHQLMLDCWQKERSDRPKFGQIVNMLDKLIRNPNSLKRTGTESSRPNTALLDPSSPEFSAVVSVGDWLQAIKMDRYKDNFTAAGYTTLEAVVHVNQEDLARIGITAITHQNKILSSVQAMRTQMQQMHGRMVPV
P38-a, sequence (Q16539 whole entry): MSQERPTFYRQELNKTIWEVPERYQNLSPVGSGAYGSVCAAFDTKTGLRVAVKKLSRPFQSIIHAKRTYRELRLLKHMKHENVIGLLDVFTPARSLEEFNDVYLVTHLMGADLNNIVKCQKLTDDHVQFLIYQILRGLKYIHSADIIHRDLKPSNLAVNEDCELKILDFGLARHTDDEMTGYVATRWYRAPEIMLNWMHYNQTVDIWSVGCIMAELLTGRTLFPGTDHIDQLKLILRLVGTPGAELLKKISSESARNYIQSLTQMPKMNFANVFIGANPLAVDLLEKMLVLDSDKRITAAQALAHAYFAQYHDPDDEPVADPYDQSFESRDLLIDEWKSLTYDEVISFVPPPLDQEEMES

Regarding `CNC(=O)c1cc(Oc2c(F)cc(NC(=O)c3nc(NC)sc3-c3ccc(F)cc3)cc2F)ccn1` [Compound 19], the inhibition at 5 µM at AXL was less than 50%; on TYRO3, 50 to 79%; on KIT it was 50 to 79%; at EPH-A4 it was 50 to 79%; on MUSK, less than 50%. The “inhibition of kinase activity, P38-a” value on P38-a was “D (category D for 50-79)”.
`CNC(=O)c1cc(Oc2ccc(NC(=O)c3nc(NC)sc3-c3ccc(F)cc3F)cc2F)ccn1` [Compound 21]: the inhibition at 5 µM at AXL, at TYRO3, at KIT, at EPH-A4 and on MUSK was less than 50% throughout. Also, the “inhibition of kinase activity, P38-a” value at P38-a was “E (category E is less than 50%)”.
`CNC(=O)c1cc(Oc2ccc(NC(=O)c3nc(NC)sc3-c3ccc(F)cc3C)cc2F)ccn1` [Compound 23]: the inhibition at 5 µM was 50 to 79% at AXL; 80 to 89% on TYRO3; 50 to 79% at KIT; 50 to 79% on EPH-A4; less than 50% on MUSK. Moreover, the “inhibition of kinase activity, P38-a” value at P38-a is reported as “D (category D for 50-79)”.
As for `CNC(=O)c1cc(Oc2ccc(NC(=O)c3nc(OC)oc3-c3ccc(F)c(F)c3)cc2F)ccn1` [Compound 24], the inhibition at 5 µM was less than 50% on AXL; 50 to 79% at TYRO3; less than 50% at KIT; less than 50% on EPH-A4; less than 50% at MUSK. The “inhibition of kinase activity, P38-a” value on P38-a is recorded as “D (category D for 50-79)”.
Turning to `CNC(=O)c1cc(Oc2ccc(NC(=O)c3nc(OC)oc3-c3ccc(F)s3)cc2F)ccn1` [Compound 25], the inhibition at 5 µM at AXL is less than 50%; at TYRO3 it was 50 to 79%; at KIT, less than 50%; at EPH-A4, less than 50%; on MUSK it was less than 50%. Besides, the “inhibition of kinase activity, P38-a” value on P38-a is on record as “E (category E is less than 50%)”.
With `CNC(=O)c1cc(Oc2ccc(NC(=O)c3nc(C4CC4)oc3-c3ccc(F)cc3)cc2F)ccn1` [Compound 26], the inhibition at 5 µM on AXL is 50 to 79%; on TYRO3, 90 to 94%; at KIT it was 50 to 79%; at EPH-A4 it was 80 to 89%; at MUSK it was 80 to 89%. Also, at P38-a, the “inhibition of kinase activity, P38-a” value is given as “B (B=90%-94% at 5 um)”.
In the case of `CSc1nc(C(=O)Nc2ccc(Oc3ccnc(C(=O)NC4CNC4)c3)c(F)c2)c(-c2ccc(F)s2)o1` [Compound 27], the inhibition at 5 µM on AXL, at TYRO3, at KIT, at EPH-A4 and at MUSK was less than 50% each time. Also, the “inhibition of kinase activity, P38-a” value on P38-a is on record as “D (category D for 50-79)”.
In the case of `CSc1nc(C(=O)Nc2ccc(Oc3ccnc(C(=O)NC4COC4)c3)c(F)c2)c(-c2ccc(F)s2)o1` [Compound 28], the inhibition at 5 µM at AXL, on TYRO3, on KIT, at EPH-A4 and at MUSK was less than 50% each time. Also, the “inhibition of kinase activity, P38-a” value on P38-a is “E (category E is less than 50%)”.
As for `CSc1nc(C(=O)Nc2ccc(Oc3ccnc(C(=O)NC4CNC4)c3)c(F)c2)c(-c2ccc(F)cc2)o1` [Compound 29], the inhibition at 5 µM is 50 to 79% on AXL; 50 to 79% at TYRO3; less than 50% on KIT; 50 to 79% at EPH-A4; less than 50% on MUSK. Besides, the “inhibition of kinase activity, P38-a” value on P38-a is given as “A (A=95% or greater at 5 um)”.
On to `CNC(=O)c1cc(Oc2ccc(NC(=O)c3nc(COC)oc3-c3ccc(F)cc3)cc2F)ccn1` [Compound 30], for which the inhibition at 5 µM on AXL was 50 to 79%; on TYRO3, not below 95%; on KIT, 50 to 79%; on EPH-A4 it was 90 to 94%; on MUSK, 80 to 89%. The “inhibition of kinase activity, P38-a” value on P38-a is “C (C=80%-89% at 5 um)”.
Take `CSc1nc(C(=O)Nc2ccc(Oc3ccnc(C(=O)NC4COC4)c3)c(F)c2)c(-c2ccc(F)cc2)o1` [Compound 31]: the inhibition at 5 µM on AXL is less than 50%; on TYRO3, 50 to 79%; on KIT, less than 50%; on EPH-A4, less than 50%; on MUSK it was less than 50%. In addition, the “inhibition of kinase activity, P38-a” value on P38-a is given as “C (C=80%-89% at 5 um)”.
`CNC(=O)c1cc(Oc2ccc(NC(=O)c3nc(OC4CC4)oc3-c3ccc(F)cc3)cc2F)ccn1` [Compound 32]: the inhibition at 5 µM at AXL is 80 to 89%; on TYRO3, 90 to 94%; at KIT it was less than 50%; on EPH-A4, 50 to 79%; at MUSK, less than 50%. For the same molecule, the “inhibition of kinase activity, P38-a” value on P38-a is on record as “D (category D for 50-79)”.
In the case of `[2H]C([2H])([2H])NC(=O)c1cc(Oc2ccc(NC(=O)c3nc(SC)oc3-c3ccc(F)c(F)c3)cc2F)ccn1` [Compound 33], the inhibition at 5 µM was less than 50% on AXL; 50 to 79% at TYRO3; less than 50% at KIT; less than 50% at EPH-A4; less than 50% on MUSK. The “inhibition of kinase activity, P38-a” value on P38-a is given as “C (C=80%-89% at 5 um)”.
Turning to `CNC(=O)c1cc(Oc2ccc(NC(=O)c3nc(SC(C)C)oc3-c3ccc(F)cc3)cc2F)ccn1` [Compound 34], the inhibition at 5 µM at AXL is 50 to 79%; at TYRO3, 80 to 89%; on KIT, 50 to 79%; at EPH-A4, 90 to 94%; on MUSK it was less than 50%. The “inhibition of kinase activity, P38-a” value on P38-a is “C (C=80%-89% at 5 um)”.
